Earlier results on one compound are cited in publication PMC3170264 (Retrovirology, 2011).

The data set concerns Y143 mutant HIV-1 integrase. The note with it: cited from earlier work.

With `COc1cc2c(cc1Cc1cccc(Cl)c1F)c(=O)c(C(=O)O)cn2[C@H](CO)C(C)C` [elvitegravir], the “activity against Y143 mutant HIV-1 integrase” value is listed as “fully active”.
